The values below come from patent US12479840B2, “HMG-CoA reductase degradation inducing compound” (Uppthera, priority 2020, dated 2025).

The target in this experiment is T1, HMG-CoA reductase (Homo sapiens, UniProt P04035).
T1 construct: endogenous in cells; host or cells: HepG2 (Korea Cell Line Bank)
T1 sequence (P04035 1-888): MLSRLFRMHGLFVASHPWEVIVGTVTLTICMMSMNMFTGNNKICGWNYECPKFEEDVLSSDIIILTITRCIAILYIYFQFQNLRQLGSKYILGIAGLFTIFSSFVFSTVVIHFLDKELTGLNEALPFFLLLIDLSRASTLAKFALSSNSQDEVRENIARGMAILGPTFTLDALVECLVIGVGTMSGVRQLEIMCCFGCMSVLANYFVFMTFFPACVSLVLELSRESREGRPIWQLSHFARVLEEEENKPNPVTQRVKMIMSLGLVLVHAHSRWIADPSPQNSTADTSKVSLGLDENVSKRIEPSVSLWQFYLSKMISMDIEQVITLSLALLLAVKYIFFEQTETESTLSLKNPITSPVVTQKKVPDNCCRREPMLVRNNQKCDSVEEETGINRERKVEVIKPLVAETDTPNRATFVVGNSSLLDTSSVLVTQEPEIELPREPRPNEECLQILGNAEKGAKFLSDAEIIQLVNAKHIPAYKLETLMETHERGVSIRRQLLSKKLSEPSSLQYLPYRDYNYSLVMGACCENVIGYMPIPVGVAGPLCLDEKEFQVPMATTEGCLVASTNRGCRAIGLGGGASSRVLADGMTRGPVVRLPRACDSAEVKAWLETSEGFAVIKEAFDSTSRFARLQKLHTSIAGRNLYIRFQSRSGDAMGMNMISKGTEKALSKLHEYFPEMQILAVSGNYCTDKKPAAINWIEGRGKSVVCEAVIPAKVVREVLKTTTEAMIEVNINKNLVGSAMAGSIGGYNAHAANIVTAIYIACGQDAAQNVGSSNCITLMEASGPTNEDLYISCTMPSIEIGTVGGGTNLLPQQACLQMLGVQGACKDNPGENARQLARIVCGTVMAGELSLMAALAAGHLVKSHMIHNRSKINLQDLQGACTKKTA
Nature of the experiment: HMG-CoA reductase (HMGCR) degradation in HepG2 cells by western blotting. Type of experiment: cell-based. The note with it: treated for 18 hours, ratio of HMG-CoA reductase to GAPDH, read-out: DC50. In a few lines:
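HepG2 cells (passage P105–P110) treated 18 hours with compounds in 10-point three-fold dilutions from 3 μM. RIPA lysates (15 μg protein, BCA-quantified) run on SDS-PAGE and immunoblotted for HMGCR (1:500) with GAPDH (1:20000) as loading control, primary antibodies 16 hours at 4° C.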
A word on the DC50: it is the concentration giving 50% degradation. Consider `C[C@H]1C=C2C=C[C@H](C)[C@H](CC[C@@H]3C[C@@H](O[Si](C)(C)C(C)(C)C)CC(=O)O3)[C@H]2[C@@H](OC(=O)NCCOCCOCCNc2cccc3c2C(=O)N(C2CCC(=O)NC2=O)C3=O)C1` (stereo partly drawn) [Compound 46, (1S,3R,7S,8S,8aR)-8-(2-((2R,4R)-4-((tert-butyldimethylsilyl)oxy)-6-oxotetrahydro-2H-pyran-2-yl)ethyl)-3,7-dimethyl-1,2,3,7,8,8a-hexahydronaphthalen-1-yl (2-(2-(2-((2-(2,6-dioxopiperidin-3-yl)-1,3-dioxoisoindolin-4-yl)amino)ethoxy)ethoxy)ethyl)carbamate], for which the DC50 was under 0.05 µM.

Regarding `C[C@H]1C=C2C=C[C@H](C)[C@H](CC[C@@H]3C[C@@H](O[Si](C)(C)C(C)(C)C)CC(=O)O3)[C@H]2[C@@H](OC(=O)NCCOCCOCCOCCNc2cccc3c2C(=O)N(C2CCC(=O)NC2=O)C3=O)C1` (stereo partly drawn) [Compound 47, (1S,3R,7S,8S,8aR)-8-(2-((2R,4R)-4-((tert-butyldimethylsilyl)oxy)-6-oxotetrahydro-2H-pyran-2-yl)ethyl)-3,7-dimethyl-1,2,3,7,8,8a-hexahydronaphthalen-1-yl (2-(2-(2-(2-((2-(2,6-dioxopiperidin-3-yl)-1,3-dioxoisoindolin-4-yl)amino)ethoxy)ethoxy)ethoxy)ethyl)carbamate], the DC50 was under 0.05 µM.

On to `C[C@H]1C=C2C=C[C@H](C)[C@H](CC[C@@H]3C[C@@H](O[Si](C)(C)C(C)(C)C)CC(=O)O3)[C@H]2[C@@H](OC(=O)NCCOCCOCCOCCOCCNc2cccc3c2C(=O)N(C2CCC(=O)NC2=O)C3=O)C1` (stereo partly drawn) [Compound 48, (1S,3R,7S,8S,8aR)-8-(2-((2R,4R)-4-((tert-butyldimethylsilyl)oxy)-6-oxotetrahydro-2H-pyran-2-yl)ethyl)-3,7-dimethyl-1,2,3,7,8,8a-hexahydronaphthalen-1-yl (14-((2-(2,6-dioxopiperidin-3-yl)-1,3-dioxoisoindolin-4-yl)amino)-3,6,9,12-tetraoxatetradecyl)carbamate], for which the half-maximal degradation concentration (DC50) was under 0.05 µM.

`C[C@H]1C=C2C=C[C@H](C)[C@H](CC[C@@H]3C[C@@H](O[Si](C)(C)C(C)(C)C)CC(=O)O3)[C@H]2[C@@H](OC(=O)NCCOCCOCCOCCOCCOCCNc2cccc3c2C(=O)N(C2CCC(=O)NC2=O)C3=O)C1` (stereo partly drawn) [Compound 49, (1S,3R,7S,8S,8aR)-8-(2-((2R,4R)-4-((tert-butyldimethylsilyl)oxy)-6-oxotetrahydro-2H-pyran-2-yl)ethyl)-3,7-dimethyl-1,2,3,7,8,8a-hexahydronaphthalen-1-yl (17-((2-(2,6-dioxopiperidin-3-yl)-1,3-dioxoisoindolin-4-yl)amino)-3,6,9,12,15-pentaoxaheptadecyl)carbamate]: the 50% degradation concentration (DC50) was under 0.05 µM.

As for `C[C@H]1C=C2C=C[C@H](C)[C@H](CC[C@@H]3C[C@@H](O[Si](C)(C)C(C)(C)C)CC(=O)O3)[C@H]2[C@@H](OC(=O)NCCOCCOCCOCCOCCOCCOCCNc2cccc3c2C(=O)N(C2CCC(=O)NC2=O)C3=O)C1` (stereo partly drawn) [Compound 50, (1S,3R,7S,8S,8aR)-8-(2-((2R,4R)-4-((tert-butyldimethylsilyl)oxy)-6-oxotetrahydro-2H-pyran-2-yl)ethyl)-3,7-dimethyl-1,2,3,7,8,8a-hexahydronaphthalen-1-yl (20-((2-(2,6-dioxopiperidin-3-yl)-1,3-dioxoisoindolin-4-yl)amino)-3,6,9,12,15,18-hexaoxaicosyl)carbamate], the 50% degradation concentration (DC50) is under 0.05 µM.

As for `C[C@H]1C=C2C=C[C@H](C)[C@H](CC[C@@H]3C[C@@H](O[Si](C)(C)C(C)(C)C)CC(=O)O3)[C@H]2[C@@H](OC(=O)NCCCCCNc2cccc3c2C(=O)N(C2CCC(=O)NC2=O)C3=O)C1` (stereo partly drawn) [Compound 51, (1S,3R,7S,8S,8aR)-8-(2-((2R,4R)-4-((tert-butyldimethylsilyl)oxy)-6-oxotetrahydro-2H-pyran-2-yl)ethyl)-3,7-dimethyl-1,2,3,7,8,8a-hexahydronaphthalen-1-yl (5-((2-(2,6-dioxopiperidin-3-yl)-1,3-dioxoisoindolin-4-yl)amino)pentyl)carbamate], the 50% degradation concentration (DC50) was under 0.05 µM.

Take `C[C@H]1C=C2C=C[C@H](C)[C@H](CC[C@@H]3C[C@@H](O[Si](C)(C)C(C)(C)C)CC(=O)O3)[C@H]2[C@@H](OC(=O)NCCCCCCNc2cccc3c2C(=O)N(C2CCC(=O)NC2=O)C3=O)C1` (stereo partly drawn) [Compound 52, (1S,3R,7S,8S,8aR)-8-(2-((2R,4R)-4-((tert-butyldimethylsilyl)oxy)-6-oxotetrahydro-2H-pyran-2-yl)ethyl)-3,7-dimethyl-1,2,3,7,8,8a-hexahydronaphthalen-1-yl (6-((2-(2,6-dioxopiperidin-3-yl)-1,3-dioxoisoindolin-4-yl)amino)hexyl)carbamate]: the half-maximal degradation concentration (DC50) is under 0.05 µM.

As to `C[C@H]1C=C2C=C[C@H](C)[C@H](CC[C@@H]3C[C@@H](O[Si](C)(C)C(C)(C)C)CC(=O)O3)[C@H]2[C@@H](OC(=O)NCCCCCCCNc2cccc3c2C(=O)N(C2CCC(=O)NC2=O)C3=O)C1` (stereo partly drawn) [Compound 53, (1S,3R,7S,8S,8aR)-8-(2-((2R,4R)-4-((tert-butyldimethylsilyl)oxy)-6-oxotetrahydro-2H-pyran-2-yl)ethyl)-3,7-dimethyl-1,2,3,7,8,8a-hexahydronaphthalen-1-yl (7-((2-(2,6-dioxopiperidin-3-yl)-1,3-dioxoisoindolin-4-yl)amino)heptyl)carbamate], the DC50 was under 0.05 µM.

`C[C@H]1C=C2C=C[C@H](C)[C@H](CC[C@@H]3C[C@@H](O[Si](C)(C)C(C)(C)C)CC(=O)O3)[C@H]2[C@@H](OC(=O)NCCCCCCCCNc2cccc3c2C(=O)N(C2CCC(=O)NC2=O)C3=O)C1` (stereo partly drawn) [Compound 54, (1S,3R,7S,8S,8aR)-8-(2-((2R,4R)-4-((tert-butyldimethylsilyl)oxy)-6-oxotetrahydro-2H-pyran-2-yl)ethyl)-3,7-dimethyl-1,2,3,7,8,8a-hexahydronaphthalen-1-yl (8-((2-(2,6-dioxopiperidin-3-yl)-1,3-dioxoisoindolin-4-yl)amino)octyl)carbamate]: the half-maximal degradation concentration (DC50) was under 0.05 µM.

In the case of `C[C@H]1C=C2C=C[C@H](C)[C@H](CC[C@@H]3C[C@@H](O[Si](C)(C)C(C)(C)C)CC(=O)O3)[C@H]2[C@@H](OC(=O)NCCCCCCCCCNc2cccc3c2C(=O)N(C2CCC(=O)NC2=O)C3=O)C1` (stereo partly drawn) [Compound 55, (1S,3R,7S,8S,8aR)-8-(2-((2R,4R)-4-((tert-butyldimethylsilyl)oxy)-6-oxotetrahydro-2H-pyran-2-yl)ethyl)-3,7-dimethyl-1,2,3,7,8,8a-hexahydronaphthalen-1-yl (9-((2-(2,6-dioxopiperidin-3-yl)-1,3-dioxoisoindolin-4-yl)amino)nonyl)carbamate], the DC50 was under 0.05 µM.

Regarding `C[C@H]1C=C2C=C[C@H](C)[C@H](CC[C@@H]3C[C@@H](O[Si](C)(C)C(C)(C)C)CC(=O)O3)[C@H]2[C@@H](OC(=O)NCCCCCCCCCCNc2cccc3c2C(=O)N(C2CCC(=O)NC2=O)C3=O)C1` (stereo partly drawn) [Compound 56, (1S,3R,7S,8S,8aR)-8-(2-((2R,4R)-4-((tert-butyldimethylsilyl)oxy)-6-oxotetrahydro-2H-pyran-2-yl)ethyl)-3,7-dimethyl-1,2,3,7,8,8a-hexahydronaphthalen-1-yl (10-((2-(2,6-dioxopiperidin-3-yl)-1,3-dioxoisoindolin-4-yl)amino)decyl)carbamate], the 50% degradation concentration (DC50) is under 0.05 µM.

In the case of `C[C@H]1C=C2C=C[C@H](C)[C@H](CC[C@@H]3C[C@@H](O[Si](C)(C)C(C)(C)C)CC(=O)O3)[C@H]2[C@@H](OC(=O)NCCCCCCCCCCCNc2cccc3c2C(=O)N(C2CCC(=O)NC2=O)C3=O)C1` (stereo partly drawn) [Compound 57, (1S,3R,7S,8S,8aR)-8-(2-((2R,4R)-4-((tert-butyldimethylsilyl)oxy)-6-oxotetrahydro-2H-pyran-2-yl)ethyl)-3,7-dimethyl-1,2,3,7,8,8a-hexahydronaphthalen-1-yl (11-((2-(2,6-dioxopiperidin-3-yl)-1,3-dioxoisoindolin-4-yl)amino)undecyl)carbamate], the DC50 is under 0.05 µM.

As for `C[C@H]1C=C2C=C[C@H](C)[C@H](CC[C@@H]3C[C@@H](O)CC(=O)O3)[C@H]2[C@@H](OC(=O)NCCCCCNc2cccc3c2C(=O)N(C2CCC(=O)NC2=O)C3=O)C1` (stereo partly drawn) [Compound 58, (1S,3R,7S,8S,8aR)-8-(2-((2R,4R)-4-hydroxy-6-oxotetrahydro-2H-pyran-2-yl)ethyl)-3,7-dimethyl-1,2,3,7,8,8a-hexahydronaphthalen-1-yl (5-((2-(2,6-dioxopiperidin-3-yl)-1,3-dioxoisoindolin-4-yl)amino)pentyl)carbamate], the DC50 was 0.05 to 0.5 µM.
